Key:
[1] = test system: heavy metal responsive promoter-lacZ fusion in E coli K12 MC4100; conditions: HgCl2 10, 50, 100 and 500 PPM added to sea-water, FIG. 7
Experimental: Electrochemical measurements was performed using a disposable three-electrode cell made of polystyrene tubes and based on a screen-printed electrode (total volume of 0.3 ml). The assay was performed directly in the electrochemical cells that was vibrated to achieve mixing. This system allows simultaneous measurements of eight samples using a potentiostat connected to 8 channel multiplexer. The electrical current, resulting in all 8 cultures, from the activity of β-galactosidase, was visualized in real time on the computer screen. The on-line monitoring procedure was performed as followed:
The game procedure as described on Example 4 was used to monitor mercury in water and sea water samples.

[2] = test system: E. coli K10 cultures (lacZ expression); assay: on-line amperometric monitoring of lacZ product β-galactosidase in intact bacteria after IPTG induction; type: cell-based
Experimental: Bacterial strains and growth. E. coli K-12 strain K10 (Hfr, tonA22, ompF626, relA1, pit10, spoT1, T2^R CGSC [Coli Genetic Stot Center, New Haven, Conn.] 4234) was from the lab collection, Strains E. coli RO151 (MC4100 φ(csi-5::lacZ) and E. coli RH99 (RO151 rpoS359::Tn10) were described before (Weichart et. al., 1993). All cultures were grown aerobically at 37° C. with vigorous shaking in LB media (Miler, 1992), supplemented, when required, with 5 μg/ml of tetracycline or 25 μg/ml of kanamycin.
An on-line electroanalytical assay for β-galactosidase was used where the enzymatic activity was determined following induction with IPTG. Increasing concentrations of the inducer were added to cultures of E. coli K10 (Annette & Anthony, 1987) and the current signal was monitored on-line in all the cultures simultaneously (FIG. 3A).

[3] = test system: E. coil k-12 7118 carrying pUC-PhoA plasmid (lacZ promoter-phoA); assay: on-line amperometric monitoring of phoA product alkaline phosphatase under lacZ promoter in intact bacteria; type: cell-based, E. coli; conditions: IPTG 0, 0.1 mM and 1 mM, FIG. 10
Excerpt: The expression of the enzyme AP was done by constructing a multicopy plasmid. For the construction of the plasmid, we coupled a promoter-less phoA gene to the promoter of the lacZ gene. The use of multicopy plasmid as a vector for induciable genes requires a strong repressing system to prevent constitutive expression. Therefore we used a plasmid that cares the lacI^q gene coding for a lacZ strong repressor. The plasmid was designed to generate the correct fusion between the lacZ promoter and the phoA gene. The bacteria carrying this plasmid can be immobilized and used to monitor AP by electrochemical measurements of it's activity. After the construction of the plasmid, we measured AP activity of a cell suspension in response to the appearance of IPTG.
Strain E. coil k-12 7118[F′ lacI^qΔ(lacZ)M15 proA+B+/Δ(lac-proAB) thi supE]was used for all cloning procedures, plasmid propagation and production. AP production of cells carrying the pUC-PhoA plasmid was measured on-line by the electroanalytical technique that was used for β-galactosidase as described in example 2. As shown in FIG. 10 the enzymatic activity was determined following induction with elevated concentrations of IPTG (0, 1 mM and 0.1 mM).

[4] = test system: heavy metal responsive promoter-lacZ fusion in E coli K12 MC4100; assay: on-line monitoring of cadmium in soil samples with the reporter bacteria; type: cell-based
Experimental: (§1) The on-line monitoring procedure was performed as followed:
The same assay procedure was used to detect cadmium in soil samples. The soil was added directly to the screen-printed based electrochemical cells containing the bacteria culture as described above. Eight soil samples were monitored simultaneously by the system. The results as visualized on the computer screen are shown on FIG. 6A., Two duplicates of soil sample containing 3.8 PPM cadmium (measured by the Atomic absorption method) were compared with two duplicates of clean soil samples.

[5] = test system: heavy metal responsive promoter-lacZ fusion in E coli K12 MC4100; assay: on-line amperometric monitoring of heavy metals with bacteria carrying heavy metal responsive promoter fused to lacZ; type: cell-based; conditions: CdCl2 5, 10 and 50 PPM added to culture, FIG. 5
Experimental: An on-line electroanlytical assays for β-galactosidase was used to monitor on-line the presence of heavy metals. The expression of the reporter gene β-galactosidase that was fused to a heavy metal responsive gene was proportional to the heavy metal concentration. We were able to monitor eight different samples simultaneously using a disposable electrodes.
as §1
a. The bacteria culture was grown on LB medium to a density of 40 K.U.
b. The culture was added to the multiple-cell device followed by the addition of the β-galactosidase substrate p-aminophenyl-b-D-galactopyranoside (PAPG).
c. A potential of 220 mV Vs Ag/AgCl reference electrode was applied by the electrochemical measurement system and electroanalytical assay for β-galactosidase was carried out as described in Example 4.
The current signal was monitored simultaneously in all the cultures.

[6] = biological target: β-galactosidase (Escherichia coli, UniProt P00722); conditions: purified enzyme, PAPG substrate, 220 mV
Sequence of β-galactosidase (P00722 2-1024 limits assumed): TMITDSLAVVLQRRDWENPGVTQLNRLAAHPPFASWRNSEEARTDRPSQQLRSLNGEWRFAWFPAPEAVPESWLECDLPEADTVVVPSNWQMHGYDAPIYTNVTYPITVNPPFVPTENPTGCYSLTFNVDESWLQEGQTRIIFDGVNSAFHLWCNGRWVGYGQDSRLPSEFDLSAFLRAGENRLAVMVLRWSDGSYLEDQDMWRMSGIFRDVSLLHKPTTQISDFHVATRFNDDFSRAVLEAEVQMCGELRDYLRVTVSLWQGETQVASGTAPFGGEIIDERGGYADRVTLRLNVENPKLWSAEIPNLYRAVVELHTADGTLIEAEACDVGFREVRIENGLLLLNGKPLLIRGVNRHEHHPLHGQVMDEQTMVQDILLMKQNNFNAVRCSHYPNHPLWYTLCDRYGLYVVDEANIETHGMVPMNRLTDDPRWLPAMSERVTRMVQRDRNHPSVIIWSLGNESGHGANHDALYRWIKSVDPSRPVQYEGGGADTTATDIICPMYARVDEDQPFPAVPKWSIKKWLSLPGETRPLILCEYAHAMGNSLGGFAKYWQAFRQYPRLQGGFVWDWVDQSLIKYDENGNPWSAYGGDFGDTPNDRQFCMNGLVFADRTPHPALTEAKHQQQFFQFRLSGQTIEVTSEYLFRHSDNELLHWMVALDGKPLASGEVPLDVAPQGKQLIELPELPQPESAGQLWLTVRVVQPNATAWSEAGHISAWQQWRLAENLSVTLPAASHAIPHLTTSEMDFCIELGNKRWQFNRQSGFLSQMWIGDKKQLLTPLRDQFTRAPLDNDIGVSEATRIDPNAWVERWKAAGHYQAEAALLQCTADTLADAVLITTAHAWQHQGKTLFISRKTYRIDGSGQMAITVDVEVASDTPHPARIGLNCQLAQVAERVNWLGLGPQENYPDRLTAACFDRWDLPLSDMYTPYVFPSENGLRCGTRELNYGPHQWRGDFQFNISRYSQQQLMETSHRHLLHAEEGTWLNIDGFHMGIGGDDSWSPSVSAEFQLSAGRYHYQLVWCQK
Experimental: The amperometric assay. Electrochemical measurements were performed using a disposable three-electrode cell, based on a screen-printed electrode (total volume of 0.3 ml). […] Graphite ink was used as the counter electrode and Ag/AgCl ink were the reference electrodes. Disposable graphite electrodes in cylindrical form (made from pencil leads, HB 0.9 mm) were used as the working electrodes. The assay was performed directly in the electrochemical cells which were vibrated to achieve mixing. The same screen-printed electrodes and graphite working electrode were also used for direct measurements in cultures. In this case the electrodes were placed inside the Erlenmeyer flask as shown in FIG. 1 and mixing was achieved by bubbling air. The graphite electrode was held at 220 mV versus the reference electrode and the substrate PAPG concentration was 0.4 mg/ml.
The electrochemical measurements were performed using a PAR VersaStat potentiostat connected to 8 channel PAR 314 Model multiplexer (EG&C Princeton Applied Research, Princeton, N.J.). This system allows simultaneous measurements of eight samples with disposable electrochemical cells. The measurements were controlled by a LAbVIEW-based software using a Windows 95 operating system. […]

HgCl2
current signal (reporter induction) [1]: proportional to the mercury concentrations

CC(C)S[C@@H]1O[C@H](CO)[C@H](O)[C@H](O)[C@H]1O [IPTG, isopropyl-β-D-thiogalactopyranoside]
lowest IPTG concentration from which the slope was proportional ([2]; E. coli K10, FIG. 3B): ≥ 0.5 µM | slope of the current signals with time (β-galactosidase induction) ([2]; E. coli K10, IPTG 0.5-50 μM, FIG. 3B): proportional to the concentrations of IPTG added | current signals (alkaline phosphatase activity after induction) [3]: proportional to IPTG concentations

[Cl][Cd][Cl] [cadmium, CdCl2]
current signals versus clean soil samples ([4]; soil sample containing 3.8 PPM cadmium, FIG. 6): substantially higher | lowest cadmium concentration detected in soil samples ([4]; soil samples, average of several experiments, FIG. 6B): 0.5 PPM | slope of the current signals with time (reporter induction) [5]: proportional to the concentrations of cadmium added

β-D-galactoside galatohydrolase; EC 3.2.1.23 [β-galactosidase]
detection limit [6]: 1 unit/ml

Source: patent publication US6391549B1, “Monitoring gene expression” (Ramont University Authority for Applied Research & …, priority 1999, dated 2002)
